System: HEK293T cells carrying the ATF4 luciferase reporter
Experiment: ATF4-Luc assay (in vitro model of vanishing white matter disease)
Format: cell-based, human
Settings: Homo sapiens, HEK-293T; HEK293T cells with ATF4 5'-UTR firefly luciferase reporter; 1 μg/mL tunicamycin; 7 hours; One Glo luminescence
Protocol: In order to test exemplary compounds of the invention in a cellular context, a stable VWMD cell line was first constructed. The ATF4 reporter was prepared by fusing the human full-length ATF4 5′-UTR (NCBI Accession No. BC022088.2) in front of the firefly luciferase (FLuc) coding sequence lacking the initiator methionine as described in Sidrauski et al (eLife 2013). The construct was used to produce recombinant retroviruses using standard methods and the resulting viral supernatant was used to transduce HEK293T cells, which were then subsequently selected with puromycin to generate a stable cell line.
HEK293T cells carrying the ATF4 luciferase reporter were plated on polylysine coated 384-well plates (Greiner Bio-one) at 30,000 cells per well. Cells were treated the next day with 1 μg/mL tunicamycin and 200 nM of a compound of Formula (I) for 7 hours. Luminescence was measured using One Glo (Promega) as specified by the manufacturer. Cells were maintained in DMEM with L-glutamine supplemented with 10% heat-inactivated FBS (Gibco) and Antibiotic-Antimycotic solution (Gibco).
Table 2 below summarizes the EC50 data obtained using the ATF4-Luc assay for exemplary compounds of the invention.

SMILES	EC50 [nM]
O=C(N[C@H]1CC[C@H](N2CCN(c3ccc(C(F)F)cn3)C2=O)CC1)c1ccc(Cl)c(F)c1 [Compound 123, 4-chloro-N-[(1r,4r)-4-{3-[5-(difluoromethyl)pyridin-2-yl]-2-oxoimidazolidin-1-yl}cyclohexyl]-3-fluorobenzamide]	> 2000
O=C(N[C@H]1CC[C@H](N2CCN(c3ccc(C(F)F)cn3)C2=O)CC1)c1ccc(OC(F)(F)F)cn1 [Compound 124, N-[(1r,4r)-4-{3-[5-(difluoromethyl)pyridin-2-yl]-2-oxoimidazolidin-1-yl}cyclohexyl]-5-(trifluoromethoxy)pyridine-2-carboxamide]	> 2000
O=C(COc1ccc(C(F)(F)F)nc1)N[C@H]1CC[C@H](N2CCN(c3ccc(C(F)F)cn3)C2=O)CC1 [Compound 125, N-[(1r,4r)-4-{3-[5-(difluoromethyl)pyridin-2-yl]-2-oxoimidazolidin-1-yl}cyclohexyl]-2-{[6-(trifluoromethyl)pyridin-3-yl]oxy}acetamide]	50 to 250
O=C(COc1ccc(F)c(F)c1)N[C@H]1CC[C@H](N2CCN(c3ccc(C(F)F)cn3)C2=O)CC1 [Compound 126, N-[(1r,4r)-4-{3-[5-(difluoromethyl)pyridin-2-yl]-2-oxoimidazolidin-1-yl}cyclohexyl]-2-(3,4-difluorophenoxy)acetamide]	< 50
O=C(COc1ccc(OC(F)(F)F)cc1)N[C@H]1CC[C@H](N2CCN(c3ccc(C(F)F)cn3)C2=O)CC1 [Compound 127, N-[(1r,4r)-4-{3-[5-(difluoromethyl)pyridin-2-yl]-2-oxoimidazolidin-1-yl}cyclohexyl]-2-[4-(trifluoromethoxy)phenoxy]acetamide]	250 to 1000
O=C(COc1ccc2c(c1)OC(F)(F)O2)N[C@H]1CC[C@H](N2CCN(c3ccc(C(F)F)cn3)C2=O)CC1 [Compound 128, 2-[(2,2-difluoro-2H-1,3-benzodioxol-5-yl)oxy]-N-[(1r,4r)-4-{3-[5-(difluoromethyl)pyridin-2-yl]-2-oxoimidazolidin-1-yl}cyclohexyl]acetamide]	50 to 250
O=C(N[C@H]1CC[C@H](N2CCN(c3ccc(C(F)F)cn3)C2=O)CC1)OCc1ccccc1 [Compound 129, benzyl [(1r,4r)-4-{3-[5-(difluoromethyl)pyridin-2-yl]-2-oxoimidazolidin-1-yl}cyclohexyl]carbamate]	> 2000
O=C(COc1ccc(Cl)c(F)c1)N[C@H]1CC[C@H](N2CCN(c3ccccn3)C2=O)CC1 [Compound 130, 2-(4-chloro-3-fluorophenoxy)-N-{(1r,4r)-4-[2-oxo-3-(pyridin-2-yl)imidazolidin-1-yl]cyclohexyl}acetamide]	< 50
Cc1csc(N2CCN([C@H]3CC[C@H](NC(=O)COc4ccc(Cl)c(F)c4)CC3)C2=O)n1 [Compound 131, 2-(4-chloro-3-fluorophenoxy)-N-{(1r,4r)-4-[3-(4-methyl-1,3-thiazol-2-yl)-2-oxoimidazolidin-1-yl]cyclohexyl}acetamide]	250 to 1000
O=C(COc1ccc(Cl)c(F)c1)N[C@H]1CC[C@H](N2CCN(c3ccc(C(F)F)cn3)C2=O)CC1 [Compound 133, 2-(4-chloro-3-fluorophenoxy)-N-[(1r,4r)-4-{3-[5-(difluoromethyl)pyridin-2-yl]-2-oxoimidazolidin-1-yl}cyclohexyl]acetamide]	< 50
O=C(COc1ccc(Cl)c(F)c1)N[C@H]1CC[C@H](N2CCN(c3ccc4c(c3)OC(F)(F)O4)C2=O)CC1 [Compound 134, 2-(4-chloro-3-fluorophenoxy)-N-{(1r,4r)-4-[3-(2,2-difluoro-2H-1,3-benzodioxol-5-yl)-2-oxoimidazolidin-1-yl]cyclohexyl}acetamide]	< 50
O=C(COc1ccc(Cl)c(F)c1)N[C@H]1CC[C@H](N2CCN(c3ccc(Cl)cn3)C2=O)CC1 [Compound 135, 2-(4-chloro-3-fluorophenoxy)-N-{(1r,4r)-4-[3-(5-chloropyridin-2-yl)-2-oxoimidazolidin-1-yl]cyclohexyl}acetamide]	< 50
O=C(COc1ccc(Cl)c(F)c1)N[C@H]1CC[C@H](N2CCN(c3ccc(OC(F)(F)F)nc3)C2=O)CC1 [Compound 136, 2-(4-chloro-3-fluorophenoxy)-N-[(1r,4r)-4-{2-oxo-3-[6-(trifluoromethoxy)pyridin-3-yl]imidazolidin-1-yl}cyclohexyl]acetamide]	> 2000
O=C(COc1ccc(Cl)c(F)c1)NC12CC(N3CNc4cc(F)c(F)cc4C3=O)(C1)C2 [Compound 137, 2-(4-chloro-3-fluorophenoxy)-N-[3-(6,7-difluoro-4-oxo-1,4-dihydroquinazolin-3(2H)-yl)bicyclo[1.1.1]pentan-1-yl]acetamide]	250 to 1000
O=C(COc1ccc(Cl)c(F)c1)NC12CC(n3c(=O)c4ccc(Cl)cc4n(CCO)c3=O)(C1)C2 [Compound 138, 2-(4-chloro-3-fluorophenoxy)-N-{3-[7-chloro-1-(2-hydroxyethyl)-2,4-dioxo-1,4-dihydroquinazolin-3(2H)-yl]bicyclo[1.1.1]pentan-1-yl}acetamide]	50 to 250
O=c1[nH]c2cc(Cl)ccc2c(=O)n1C12CC(NCCOc3ccc(Cl)c(F)c3)(C1)C2 [Compound 139, 7-chloro-3-(3-{[2-(4-chloro-3-fluorophenoxy)ethyl]amino}bicyclo[1.1.1]pentan-1-yl)quinazoline-2,4(1H,3H)-dione]	> 2000
O=C(COc1ccc(Cl)c(F)c1)NC12CC(n3c(=O)[nH]c4cc(Cl)ccc4c3=O)(C1)C2 [Compound 140, N-[3-(7-chloro-2,4-dioxo-1,4-dihydroquinazolin-3(2H)-yl)bicyclo[1.1.1]pentan-1-yl]-2-(4-chloro-3-fluorophenoxy)acetamide]	250 to 1000
O=C(COc1ccc(Cl)c(F)c1)N[C@H]1CC[C@H](N2CCN(c3ccc(OC(F)(F)F)cn3)C2=O)CC1 [Compound 141, 2-(4-chloro-3-fluorophenoxy)-N-[(1r,4r)-4-{2-oxo-3-[5-(trifluoromethoxy)pyridin-2-yl]imidazolidin-1-yl}cyclohexyl]acetamide]	50 to 250
O=C(COc1ccc(Cl)c(F)c1)N[C@H]1CC[C@H](N2CCN(c3ccc(C(F)F)nc3)C2=O)CC1 [Compound 142, 2-(4-chloro-3-fluorophenoxy)-N-[(1r,4r)-4-{3-[6-(difluoromethyl)pyridin-3-yl]-2-oxoimidazolidin-1-yl}cyclohexyl]acetamide]	< 50
O=C(COc1ccc(Cl)c(F)c1)N[C@H]1CC[C@H](N2CCN(c3ccc(C(F)(F)F)nc3)C2=O)CC1 [Compound 143, 2-(4-chloro-3-fluorophenoxy)-N-[(1r,4r)-4-{2-oxo-3-[6-(trifluoromethyl)pyridin-3-yl]imidazolidin-1-yl}cyclohexyl]acetamide]	< 50
O=C(COc1ccc(Cl)c(F)c1)N[C@H]1CC[C@H](N2CCN(c3ccc(Cl)cc3)C2=O)CC1 [Compound 144, 2-(4-chloro-3-fluorophenoxy)-N-{(1r,4r)-4-[3-(4-chlorophenyl)-2-oxoimidazolidin-1-yl]cyclohexyl}acetamide]	< 50
O=C(COc1ccc(Cl)c(F)c1)NC12CC(N3CCN(c4ccc(Cl)cn4)C3=O)(C1)C2 [Compound 145, 2-(4-chloro-3-fluorophenoxy)-N-{3-[3-(5-chloropyridin-2-yl)-2-oxoimidazolidin-1-yl]bicyclo[1.1.1]pentan-1-yl}acetamide]	< 50
O=C(COc1ccc(Cl)c(F)c1)NC12CCC(N3CCN(c4ccc(Cl)c(F)c4)C3=O)(CC1)CC2O (stereo not shown) [Compound 146, 2-(4-chloro-3-fluorophenoxy)-N-{4-[3-(4-chloro-3-fluorophenyl)-2-oxoimidazolidin-1-yl]-2-hydroxybicyclo[2.2.2]octan-1-yl}acetamide]	< 50
O=C(COc1ccc(Cl)c(F)c1)NC12CC(N3CCN(c4ccc(C(F)F)cn4)C3=O)(C1)C2 [Compound 147, 2-(4-chloro-3-fluorophenoxy)-N-(3-{3-[5-(difluoromethyl)pyridin-2-yl]-2-oxoimidazolidin-1-yl}bicyclo[1.1.1]pentan-1-yl)acetamide]	< 50
O=C(COc1ccc(Cl)c(F)c1)NC12CC(N3C(=O)OC(c4ccc(F)cc4)C3=O)(C1)C2 (stereo not shown) [Compound 158, 2-(4-chloro-3-fluorophenoxy)-N-{3-[5-(4-fluorophenyl)-2,4-dioxo-,3-oxazolidin-3-yl]bicyclo[1.1.1]pentan-1-yl}acetamide]	1000 to 2000
O=C(COc1ccc(Cl)c(F)c1)NC12CC(N3CC(c4ccc(Cl)c(F)c4)CC3=O)(C1)C2 (stereo not shown) [Compound 159, 2-(4-chloro-3-fluorophenoxy)-N-{3-[4-(4-chloro-3-fluorophenyl)-2-oxopyrrolidin-1-yl]bicyclo[1.1.1]pentan-1-yl}acetamide]	< 50
O=C(COc1ccc(Cl)c(F)c1)NC12CC(n3ccn(-c4ccc(Cl)cc4)c3=O)(C1)C2 [Compound 160, 2-(4-chloro-3-fluorophenoxy)-N-{3-[3-(4-chlorophenyl)-2-oxo-2,3-dihydro-1H-imidazol-1-yl]bicyclo[1.1.1]pentan-1-yl}acetamide]	< 50
O=C(COc1ccc(Cl)c(F)c1)NC12CCC(N3CC(c4ccc(Cl)cc4)OC3=O)(CC1)CC2O (stereo not shown) [Compound 162, 2-(4-chloro-3-fluorophenoxy)-N-{4-[5-(4-chlorophenyl)-2-oxo-1,3-oxazolidin-3-yl]-2-hydroxybicyclo[2.2.2]octan-1-yl}acetamide]	50 to 250
